In US6930088B2, “Conformationally constrained backbone cyclized somatostatin analogs” (Peptor Ltd., priority 1998, dated 2005):
Where two headings read alike, the source gives them in different places. *1 amine or outer side, *2 acyl side, *3 side chain or, on linkers, in order; H or OH if unused. Where a SMILES comes first, the peptide text is derived from it. Bridges are numbered along the chain shown (N, C = ends). [ ]: non-standard residue; d: D form. Phe(Nα-CH2CH2CO) = O=C([C@H](Cc1ccccc1)N(CCC(=O)[*:3])[*:1])[*:2]; N(2-mercaptoethyl)Gly = O=C(CN(CCS[*:3])[*:1])[*:2]

How the values were obtained:
[1] = In vitro biostability in renal homogenate (HPLC); conditions: kidney or brush border membranes
Experimental: The assay was based on HPLC determination of peptide degradation as a function of time in renal homogenate at 37° C.

[2] = cited from earlier work
SSTR-3 = molecular target: T1, SSTR-3 (Homo sapiens, UniProt P32745); experiment: Inhibition of 125I-Tyr11-SRIF binding to membrane preparations expressing SSTR-3; conditions: for IC50: Table 15, read-out: IC50 (nM) for SST-R 3
T1 construct: expressed in transfected cells
Experimental: The somatostatin analogs were tested for their potency in inhibition of the binding of ^125I-Tyr^11-SRIF (based on the method described by Raynor et. al., Molecular Pharmacology, 1993, 43, 838-844) to membrane preparations expressing the transmembranal somatostatin receptors (SSTR-1, 2, 3, 4 or 5). The receptor preparations used for these tests were either from the cloned human receptors selectively and stably expressed in Chinese Hamster Ovary (CHO) cells or from cell lines naturally expressing the SSTRs. […] The binding reactions were filtered, the filters were washed and the bound radioactivity was counted in gamma counter. Non specific binding was defined as the radioactivity remaining bound in the presence of 1 μM unlabeled SRIF-14.
(§1) In order to validate positive signals of the binding tests, and to eliminate non-specific signals, samples of irrelevant peptides, such as GnRH, that were synthesized and handled using the same procedures, were tested in the same assays as negative control samples. These samples had no binding activity in any of the assays. Results are shown below in Tables 5 and 6 and FIG. 1.

SSTR-5 = molecular target: T2, SSTR-5 (Homo sapiens, UniProt P35346); experiment: Inhibition of 125I-Tyr11-SRIF binding to membrane preparations expressing SSTR-5; conditions: for IC50: Table 15, read-out: IC50 (nM) for SST-R 5
T2 construct: expressed in transfected cells
Experimental: (§2) The receptor preparations used for these tests were either from the cloned human receptors selectively and stably expressed in Chinese Hamster Ovary (CHO) cells or from cell lines naturally expressing the SSTRs. […] The binding reactions were filtered, the filters were washed and the bound radioactivity was counted in gamma counter. Non specific binding was defined as the radioactivity remaining bound in the presence of 1 μM unlabeled SRIF-14.
as §1

SSTR-2 = molecular target: T3, SSTR-2 (Homo sapiens, UniProt P30874); experiment: Inhibition of 125I-Tyr11-SRIF binding to membrane preparations expressing SSTR-2
T3 construct: expressed in transfected cells
Experimental: as §2, §1

[3] = IV, from Sandostatin overview, Sandoz 1992
[4] = SC, from Sandostatin overview, Sandoz 1992
[5] = Table 15, read-out: IC50 (nM) for SST-R 2

T3 sequence (P30874 whole entry): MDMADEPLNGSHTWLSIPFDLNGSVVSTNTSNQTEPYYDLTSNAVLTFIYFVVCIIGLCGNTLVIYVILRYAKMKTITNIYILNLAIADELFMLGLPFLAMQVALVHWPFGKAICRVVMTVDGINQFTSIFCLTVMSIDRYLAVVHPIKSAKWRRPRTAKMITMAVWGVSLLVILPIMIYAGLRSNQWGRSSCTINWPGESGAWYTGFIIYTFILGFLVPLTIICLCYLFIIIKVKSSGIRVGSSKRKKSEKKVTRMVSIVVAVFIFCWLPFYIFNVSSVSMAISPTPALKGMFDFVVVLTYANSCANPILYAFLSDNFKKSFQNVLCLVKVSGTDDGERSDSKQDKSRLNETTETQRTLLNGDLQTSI
T1 sequence (P32745 whole entry): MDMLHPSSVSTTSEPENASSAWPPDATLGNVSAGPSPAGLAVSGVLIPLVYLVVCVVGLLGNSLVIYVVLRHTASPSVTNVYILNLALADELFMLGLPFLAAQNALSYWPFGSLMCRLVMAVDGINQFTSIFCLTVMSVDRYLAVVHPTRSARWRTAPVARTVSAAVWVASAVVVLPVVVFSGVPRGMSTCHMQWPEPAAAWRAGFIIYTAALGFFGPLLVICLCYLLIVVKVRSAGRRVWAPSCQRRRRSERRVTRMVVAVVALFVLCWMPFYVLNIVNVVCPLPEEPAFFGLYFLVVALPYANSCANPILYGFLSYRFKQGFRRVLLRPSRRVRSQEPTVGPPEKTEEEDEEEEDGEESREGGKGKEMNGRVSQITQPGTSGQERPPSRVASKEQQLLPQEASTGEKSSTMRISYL
T2 sequence (P35346 whole entry): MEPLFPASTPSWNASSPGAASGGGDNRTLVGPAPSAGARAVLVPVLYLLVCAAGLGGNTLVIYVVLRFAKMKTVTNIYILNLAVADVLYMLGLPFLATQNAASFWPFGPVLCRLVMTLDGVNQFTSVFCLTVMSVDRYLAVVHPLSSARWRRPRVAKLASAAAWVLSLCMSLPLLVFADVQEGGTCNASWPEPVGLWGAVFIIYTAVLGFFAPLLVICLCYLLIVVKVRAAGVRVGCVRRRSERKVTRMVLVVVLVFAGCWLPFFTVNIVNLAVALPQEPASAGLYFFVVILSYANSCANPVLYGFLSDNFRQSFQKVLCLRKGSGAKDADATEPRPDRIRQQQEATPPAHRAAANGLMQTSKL

C[C@@H](O)[C@@H]1NC(=O)[C@H](CCCCN)NC(=O)[C@@H](Cc2c[nH]c3ccccc23)NC(=O)[C@H](Cc2ccccc2)NC(=O)[C@@H](NC(=O)[C@H](N)Cc2ccccc2)CSSC[C@@H](C(=O)N[C@H](CO)[C@@H](C)O)NC1=O [Octreotide]
remaining at 1 h [1]: 100%
remaining at 3 h [1]: 100%
remaining at 24 h [1]: 100%
Clearance [2, 3]: 17.6 mL/min/kg
T½β (min) circulating half life [2, 3]: 49 min
Vss (ml/kg) Volume of distribution [2, 3]: 602 mL/kg
circulation half-life ([2]; Octreotide): 40 min
Clearance [2, 4]: 17.1 mL/min/kg
F (%) Bioavailability [2, 4]: 103%
T½β (min) circulating half life [2, 4]: 40 min

NCCCC[C@H]1NC(=O)[C@@H](Cc2c[nH]c3ccccc23)NC(=O)[C@H](Cc2ccccc2)NC(=O)[C@H](Cc2ccccc2)NC(=O)[C@H](Cc2ccccc2)NC(=O)CCN([C@@H](Cc2ccccc2)C(N)=O)C1=O [PTR 3171, Phe*-Phe-Phe-(D)Trp-(D)Lys-Phe(C2)-X] (FFF[dW][dK][Phe(Nα-CH2CH2CO)]-NH2; lactam N-6)
remaining at 1 h [1]: 100%
remaining at 3 h [1]: 100%
remaining at 24 h [1]: 100%
inhibition at 1 µM (SSTR-3; SST-R3, 10^−6M, read-out: Percent inhibition of SRIF-14 binding): 87%
inhibition at 0.1 µM (SSTR-3; SST-R3, 10^−7M, read-out: Percent inhibition of SRIF-14 binding): 40%
inhibition at 0.01 µM (SSTR-3; SST-R3, 10^−8M, read-out: Percent inhibition of SRIF-14 binding): 12%
inhibition at 1 µM (SSTR-5; SST-R5, 10^−6M, read-out: Percent inhibition of SRIF-14 binding): 60%
inhibition at 0.1 µM (SSTR-5; SST-R5, 10^−7M, read-out: Percent inhibition of SRIF-14 binding): 10%
inhibition at 0.01 µM (SSTR-5; SST-R5, 10^−8M, read-out: Percent inhibition of SRIF-14 binding): 18%

C[C@@H](O)[C@@H]1NC(=O)[C@H](CCCCN)NC(=O)[C@@H](Cc2c[nH]c3ccccc23)NC(=O)[C@H](Cc2c[nH]c3ccccc23)NC(=O)[C@H](Cc2ccccc2)NC(=O)[C@@H](N)CSSCCN(CC(N)=O)C(=O)[C@H](Cc2ccccc2)NC1=O [PTR 3197, Cys*-Phe-Trp-(D)Trp-Lys-Thr-Phe-Gly(S2)*-NH2] (H-CFW[dW]KTF[N(2-mercaptoethyl)Gly]-NH2; disulfide 1-8; N-terminus assumed)
IC50 (SSTR-2; [5]): 4 nM
IC50 (SSTR-5): 1 nM

C[C@@H](O)[C@@H]1NC(=O)[C@H](CCCCN)NC(=O)[C@@H](Cc2c[nH]c3ccccc23)NC(=O)[C@H](Cc2c[nH]c3ccccc23)NC(=O)[C@H](Cc2ccccc2)NC(=O)[C@@H](NC(=O)[C@H](N)Cc2ccccc2)CSSCCN(CC(N)=O)C(=O)[C@H](Cc2ccccc2)NC1=O [PTR 3207, (D)Phe-Cys*-Phe-Trp-(D)Trp-Lys-Thr-Phe-Gly(S2)*-NH2]
IC50 (SSTR-2; [5]): 1 to 12 nM

C[C@@H](O)[C@@H]1NC(=O)[C@H](CCCCN)NC(=O)[C@@H](Cc2c[nH]c3ccccc23)NC(=O)[C@H](Cc2c[nH]c3ccccc23)NC(=O)[C@H](Cc2ccccc2)NC(=O)CSSCCN(CC(N)=O)C(=O)[C@H](Cc2ccccc2)NC1=O [PTR 3211, Mercapto-acetic-acid(*)-Phe-Trp-(D)Trp-Lys-Thr-Phe-Gly(S2)*-NH2]
IC50 (SSTR-2; [5]): 37 nM
IC50 (SSTR-3): 12 to 37 nM

C[C@@H](O)[C@@H]1NC(=O)[C@H](CCCCN)NC(=O)[C@@H](Cc2c[nH]c3ccccc23)NC(=O)[C@H](Cc2c[nH]c3ccccc23)NC(=O)[C@H](Cc2ccccc2)NC(=O)CNCCSSCCN(CC(N)=O)C(=O)[C@H](Cc2ccccc2)NC1=O [PTR 3213, Gly(S2)*-Phe-Trp-(D)Trp-Lys-Thr-Phe-Gly(S2)*-NH2]
IC50 (SSTR-2; [5]): 4 nM
IC50 (SSTR-5): 12 nM

C[C@@H](O)[C@@H]1NC(=O)[C@H](CCCCN)NC(=O)[C@@H](Cc2c[nH]c3ccccc23)NC(=O)[C@H](Cc2c[nH]c3ccccc23)NC(=O)[C@H](Cc2ccccc2)NC(=O)CCSSCCN(CC(N)=O)C(=O)[C@H](Cc2ccccc2)NC1=O [PTR 3217, 3-Thiopropanoic-acid*-Phe-Trp-(D)Trp-Lys-Thr-Phe-Gly(S2)*-NH2]
IC50 (SSTR-2; [5]): 37 nM
IC50 (SSTR-3): 100 nM

C[C@@H](O)[C@@H]1NC(=O)[C@H](CCCCN)NC(=O)[C@@H](Cc2c[nH]c3ccccc23)NC(=O)[C@H](Cc2c[nH]c3ccccc23)NC(=O)[C@H](Cc2ccccc2)NC(=O)CN(C(=O)[C@H](N)Cc2ccccc2)CCSSCCN(CC(N)=O)C(=O)[C@H](Cc2ccccc2)NC1=O [PTR 3219, (D)Phe-Gly(S2)*-Phe-Trp-(D)Trp-Lys-Thr-Phe-Gly(S2)*-NH2]
IC50 (SSTR-2): 4 nM
